# Reference: US20210323940A1 (OCEANS LTD., priority 2018, published 2021)
# Columns and labels:
# Assay type in all cases: cell-based, human
# [1] = tested on: MDA-MB-231 (mammary gland adenocarcinoma); experiment: CIMA assay (MTT, 72 h); details: MDA-MB
# Method: Experimental: Stock solutions of the test compounds were prepared in dimethylsulfoxide (DMSO) at 10 mg/ml and stored at −20° C. until used. This preparation ensures that the DMSO content delivered to cells in culture never exceeds 1%. […] Cell proliferation was initially assessed using a standard colorimetric indicator of metabolic activity (CIMA) assay. In this assay, reduction of yellow tetrazolium salt (MTT) to purple formazan by mitochondrial reductases enzymes in viable cells were measured as change in absorbance (λ=500-600).
# (§1) Seven human cell lines were evaluated: U373 (glioblastoma-astrocytoma), A549 (lung carcinoma), PC3 (prostate adenocarcinoma), THP1 (acute monocytic leukemia), MDA-MB-231 (mammary gland adenocarcinoma), SKOV3 (ovarian adenocarcinoma) and CCD1079Sk (normal skin fibroblast) cells.
# [2] = tested on: PC3 (prostate adenocarcinoma); experiment: CIMA assay (tetrazolium reduction, cell viability, 72 h); details: PC3
# Method: (§2) Prepared extracts were assessed following chronic exposure conditions in which cells were seeded at 2×10^3 cells/well (96 wells-plate) and incubated with test compounds for 72 h. Each compound was evaluated over a range of concentrations (0, 10, 25, 50 or 100 μg/ml). Cell proliferation was initially assessed using a standard colorimetric indicator of metabolic activity (CIMA) assay. In this assay, tetrazole reduction was evaluated as a measure of metabolic function that evaluates mitochondrial activity to determine the extent of cell proliferation within a culture. This assay is based on the reduction of yellow tetrazolium salt to purple formazan by mitochondrial reductases enzyme in viable cells, resulting in a color change that confers a change in absorbance. Seven human cell lines were selected for primary evaluation: U373 (glioblastoma-astrocytoma), A549 (lung carcinoma), THP-1 (acute monocytic leukemia), MCF7 (mammary gland adenocarcinoma), SKOV3 (ovarian adenocarcinoma), PC3 (prostate adenocarcinoma) and CCD1079SK (fibroblast, noncancerous but proliferating) (see FIG. 2 and Table 2). Results are expressed in Table 2 as % viability (means±standard deviation of three replicates), with LD50/IC50 values in Tables 3 and 6. […] The maximum DMSO concentration was 1% at 100 μg/ml with 5% SDS used as a known toxic inducer.
# (§3) Experimental: Stock solutions of the test compounds were prepared in dimethylsulfoxide (DMSO) at 10 mg/ml and stored at −20° C. until used. This preparation ensures that the DMSO content delivered to cells in culture never exceeds 1%. Appropriate cells number, based on previous assays, were seeded in 96 well plate and incubated with test compounds (up to 8 log concentrations, 0 to 50 or 100 μg/ml) for 72 h. Cell proliferation was initially assessed using a standard colorimetric indicator of metabolic activity (CIMA) assay. In this assay, reduction of yellow tetrazolium salt (MTT) to purple formazan by mitochondrial reductases enzymes in viable cells were measured as change in absorbance (λ=500-600).
# as §1
# [3] = tested on: U373 (glioblastoma-astrocytoma); experiment: as above; details: U373
# Method: as §2, §3, §1
# A549 (lung carcinoma) = experiment: as above; details: A549
# Method: as §2, §3, §1
# [4] = tested on: CCD1079SK (fibroblast, noncancerous but proliferating); experiment: as above; details: CCD
# Method: as §2, §3, §1
# [5] = tested on: THP-1 (acute monocytic leukemia); experiment: as above; details: THP-1
# Method: as §2, §3, §1
# [6] = tested on: SKOV3 (ovarian adenocarcinoma); experiment: as above; details: SKOV
# Method: as §2, §3, §1
structure (smiles),measurement,setting,value
"CCCCCC(O)C(O)/C=C/C1CCCCCCCC(=O)O1 (racemic) [compound (I), 12,13-dihydroxy-10-octadecen-9-olide]",fold change viability (AVG),[1]; 1 ug/mL,1.10
same,fold change viability (AVG),[1]; 10 ug/mL,1.05
same,fold change viability (AVG),[1]; 50 ug/mL,0.72
same,fold change viability (AVG),[1]; 100 ug/mL,0.21
same,fold change viability (AVG),[2]; 1 ug/mL,1.03
same,fold change viability (AVG),[2]; 10 ug/mL,0.96
same,fold change viability (AVG),[2]; 50 ug/mL,1.01
same,fold change viability (AVG),[2]; 100 ug/mL,0.19
same,fold change viability (AVG),[3]; 1 ug/mL,0.92
same,fold change viability (AVG),[3]; 10 ug/mL,0.86
same,fold change viability (AVG),[3]; 50 ug/mL,0.69
same,fold change viability (AVG),[3]; 100 ug/mL,0.03
same,fold change viability (AVG),A549 (lung carcinoma); 1 ug/mL,1.11
same,fold change viability (AVG),A549 (lung carcinoma); 10 ug/mL,1.09
same,fold change viability (AVG),A549 (lung carcinoma); 50 ug/mL,1.08
same,fold change viability (AVG),A549 (lung carcinoma); 100 ug/mL,0.72
same,fold change viability (AVG),[4]; 1 ug/mL,1.00
same,fold change viability (AVG),[4]; 10 ug/mL,0.92
same,fold change viability (AVG),[4]; 50 ug/mL,0.99
same,fold change viability (AVG),[4]; 100 ug/mL,0.18
same,fold change viability (AVG),[5]; 1 ug/mL,1.09
same,fold change viability (AVG),[5]; 10 ug/mL,0.95
same,fold change viability (AVG),[5]; 50 ug/mL,0.77
same,fold change viability (AVG),[5]; 100 ug/mL,0.50
same,fold change viability (AVG),[6]; 1 ug/mL,1.04
same,fold change viability (AVG),[6]; 10 ug/mL,1.05
same,fold change viability (AVG),[6]; 50 ug/mL,1.01
same,fold change viability (AVG),[6]; 100 ug/mL,0.92
"CCCCCCCCCCCCOS(=O)(=O)[O-].[Na+] [SDS, reference compound]",average cell viability,"[1]; positive control, 250 ug/ml",14
